Patent US20140256644A1, “Treatment of Muscular Conditions and Muscular Dystrophies” (priority 2011, published 2014)
“Also recorded” adds a separate entry of the source. Where no end group is shown, it is not given here.

Legend:
adult mdx FDB myofibers [1] = test: Stretch-induced ROS production (X-ROS), DCF fluorescence, 10% axial stretch (MuST); type: cell-based, mouse; conditions: adult mdx FDB fibers, 10% stretch, gp91dsTAT 2 μM, fulvene-5 5 μM, L-NAME 1 mM, colchicine, nocodozole, latrunculin A 10 μM
Method: (§1) After euthanasia by CO2 inhalation, flexor digitorum brevis (FDB) muscle was harvested bilaterally and incubated in DMEM with 1 μl/ml gentamicin, and 0.4% collagenase A (Roche Applied Science, Indianapolis, Ind., USA) as described. Single intact myofibers were isolated by gentle trituration. The fibers were imaged and/or fixed for immunolabeling within an 8-h period (unless indicated), thus avoiding morphological changes that can occur in FDB fibers that are cultured for a prolonged period.
All experiments were performed in custom rotating glass-bottom chamber (Four-hour Day Foundation, Towson, Md.) equipped with bath perfusion and mounted on BioRad Radiance fluorescent laser scanning confocal attached to an Olympus IX-70 inverted microscope (Olympus Corp., Centre Valley, Pa.). Cells were attached using micro-tweezers coated with the biological adhesive, MyoTak (Ionoptix, Milton, Mass.) and connected to a high-sensitivity force transducer (KG7) equipped with an anti-oscillation filter and a piezo-electric length controller (World Precision Instruments, Sarasota, Fla.). The force transducer and length controller were mounted on folded motorized micromanipulators (Siskiyou, Grants Pass, Oreg.) allowing to place the tweezers above the cell of interest. The rotating chamber, the tweezer-equipped force transducer and length controller and the micromanipulators formed the Muscle Stretch Tool (MUST).
(§2) Myofibers were attached at both ends by gently closing the MyoTak-coated tweezers without compressing the cell membrane and then lifting the cell from the bottom of the chamber. Cell sarcomere length was monitored using a High-speed Video Sarcomere Length camera (Aurora Scientific, Aurora, ON, CAN) and the voltage into the length controller was adjusted to produce a stretch equal to 10% of resting sarcomere length. The tension signal from the force transducer and positional output from the length controller were recorded at 1 kHz using a 600A data acquisition system from Aurora.
ROS was measured using 6-carboxy-2″,7″-dichlorodihydrofluorescein diacetate (DCFH-DA) (Invitrogen, Carlsbad, Calif.) in dimethyl sulfoxide (DMSO). FDB fibers were suspended in HEPES-buffered Ringer's solution containing (in mM): 140 NaCl, 4.0 KCl, 1.0 MgSO4, 5.0 NaHCO3, 10.0 glucose, 10.0 HEPES at pH 7.3 and incubated with Ringer's solution containing DCFH-DA (10 μM) for 30 minutes at room temperature. DCF-loaded cells were mounted on MUST and imaged using confocal line-scanning microscopy at 2 ms/line with very low laser intensity to prevent artifactual amplification of the signal due to light oxidation. DCF fluorescence signals were processed as described (16). The NOX2 specific inhibitor gp91dsTAT (2 μM), NOX inhibitor fulvene-5 (5 μM) and nitric oxide synthase inhibitor L-NAME (1 mM) was used to verify the source of ROS. Interrogation of cytoskeletal involvement in stretch dependent ROS or Ca^2+ influx was done with pharmacological methods.

adult mdx mice [2] = test: In vivo eccentric contraction-induced injury in mdx; conditions: for eccentric contraction induced force loss: colchicine 1 mg/kg IP 4 hours or apocynin 3 mg/kg IP 3 days, 20 eccentric contractions; for eccentric contraction induced force drop (FIG. 13): dimethylaminoparthenolide 50 mg/kg via gavage per day/3 days, Gp91ds-TAT 5 ug/g body weight, 2 doses one day apart
Method: (§3) Anaesthetized mice (isoflurane) were placed on a thermostatically controlled table, the knee was fixed with a pin and the foot was firmly fixed to a footplate on the motor shaft. Contraction was elicited by percutaneous electrical stimulation of the sciatic nerve. Optimal isometric tetanic torque was determined with increasing current with a minimum of 30 s between each contraction to avoid fatigue. Eccentric contractions at maximal isometric torque (0.2 ms pulse train at 100 Hz) were assayed for the resistance to muscle damage.
Eccentric contractions were achieved by lengthening the muscle during maximal contraction. This was achieved by translating the footplate 30° at a velocity of 40 mm/s following the first 200 msec of the isometric contraction. This protocol consisted of 20 eccentric contractions with 1 minute pauses in between. The decrease in the peak isometric force prior to the eccentric phase was taken as an indication for muscle damage. To test the role of X-ROS in the functional status of mdx muscle, adult mdx mice were treated with either colchicine (1 mg/kg IP; 4 hours) or apocynin (3 mg/kg IP; 3 days) in vivo to reduce X-ROS signaling followed by a contraction protocol to produce mechanical stress.

adult mdx mice [3] = test: In vitro isometric contraction-induced injury of EDL muscle after in vivo treatment; parameters: species or system mouse; conditions: mdx mice treated in vivo (colchicine 1 mg/kg IP 4 hours; apocynin 3 mg/kg IP 3 days), 20 isometric contractions
Method: Following CO2 asphyxiation and cervical dislocation, single EDL muscles were surgically excised with ligatures at each tendon (5-0 silk suture) and mounted in an in vitro bath between a fixed post and force transducer (Aurora 300B-LR) operated in isometric mode. The muscle was maintained in physiological saline solution and maintained at 30° C. under aeration with 95 O2/5 CO2 (%) throughout the experiment. Resting tension, muscle length and stimulation current were iteratively adjusted for each muscle to obtain optimal twitch force. During a 5 minute equilibration, single twitches were elicited at every 30 seconds with electrical pulses (0.5 msec) through platinum electrodes running parallel to the muscle. The injury protocol used to induce a force deficit (39) consisted of 20 maximum isometric contractions (1 sec at 100 Hz) separated by 1 minute. The absolute isometric force of each muscle during the contraction protocol was normalized to the maximum isometric force (Po) produced by the muscle during the 20-contraction protocol.

NOX = biological target: T1, NOX (Homo sapiens, UniProt P04839); conditions: in muscle; apocynin or its oxidation products; cited from earlier work
T1 construct: host or cells: muscle
T1 sequence (P04839 1-570): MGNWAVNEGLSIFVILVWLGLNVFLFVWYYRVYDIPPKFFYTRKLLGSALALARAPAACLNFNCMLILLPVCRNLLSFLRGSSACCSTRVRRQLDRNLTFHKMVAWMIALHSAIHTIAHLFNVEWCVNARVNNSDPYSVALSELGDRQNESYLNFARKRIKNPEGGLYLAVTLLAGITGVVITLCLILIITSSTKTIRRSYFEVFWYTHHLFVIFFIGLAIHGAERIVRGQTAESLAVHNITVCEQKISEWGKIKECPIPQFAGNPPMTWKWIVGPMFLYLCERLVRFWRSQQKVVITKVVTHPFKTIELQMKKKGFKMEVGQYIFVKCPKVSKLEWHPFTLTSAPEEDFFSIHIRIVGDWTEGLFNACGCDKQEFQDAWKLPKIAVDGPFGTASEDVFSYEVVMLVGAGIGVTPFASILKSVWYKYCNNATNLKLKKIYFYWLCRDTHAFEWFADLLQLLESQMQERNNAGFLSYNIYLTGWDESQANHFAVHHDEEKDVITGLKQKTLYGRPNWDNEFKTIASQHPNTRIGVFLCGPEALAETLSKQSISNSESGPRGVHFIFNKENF

wild-type (WT) mice = test: In vivo eccentric contraction-induced injury in wild-type mice (gastrocnemius); parameters: species or system mouse
Method: WT mice were treated in vivo with either vehicle, or a combination of colchicine and apocynin. Following treatment, the gastrocnemius muscle was assayed for susceptibility to in vivo eccentric contraction injury.
as §3
Eccentric contractions were achieved by lengthening the muscle during maximal contraction. This was achieved by translating the footplate 30° at a velocity of 40 mm/s following the first 200 msec of the isometric contraction. This protocol consisted of 20 eccentric contractions with 1 minute pauses in between. The decrease in the peak isometric force prior to the eccentric phase was taken as an indication for muscle damage.

adult mdx FDB myofibers [4] = test: Stretch-dependent sarcolemmal Ca2+ influx, fluo-4 fluorescence rate; type: cell-based, mouse; conditions: adult mdx FDB fibers, acute stretch, GsMTx4 2.5 μM, colchicine 10 μM
Method: as §1, with “period. […]” for “period.”
as §2
Similar to DCF measurements, FDBs were suspended in Ringer's solution containing 5 μM fluo-4-AM (Invitrogen, Carlsbad, Ca) for 30 minutes at room temperature. […] Fluo-4 signal slopes before stretch and after were measured.

[5] = tested on: microtubule network in isolated FDB myofibers; test: Fluorescence labeling and quantification of α-tubulin (microtubule network density); type: cell-based, mouse; conditions: for microtubule density (α-tubulin IHC): FDB fibers, colchicine 10 μM, taxol 10 μM; for microtubule density in isolated FDB myofibers: Angiotensin II treatment over 24 hrs
Method: Isolated intact FBDs were plated on ECM gel from Engelbreth-Holm-Swarm murine sarcoma coated imaging dishes (MatTek, Ashland, Mass.). Following treatment, plated myofibers were fixed with 2% paraformaldehyde, permeabilized with 0.1% Triton X-100 in phosphate buffered saline (PBS), blocked in 8% bovine serum albumin in PBS, and then labeled overnight with an antibody to α-tubulin conjugated to Alexa Fluor 488 (anti-mouse; Invitrogen, Carlsbad, Calif., USA). Digital images were obtained with a BioRad Radiance fluorescent laser scanning confocal attached to an Olympus IX-70 inverted microscope. Laser intensity was adjusted on a sample-to-sample basis to maximize amount of microtubules that are visualized. A 35-image Z-stack was taken at 0.5 μm interval and the most representative 9 frames were stacked together using ImageJ (NIH, USA) to form a composite image. Quantification was performed on the binary image representation of the 9-image stack. Background was subtracted uniformly and image was transformed into a binary using ImageJ unbiased binary function. A uniform region of interest was selected and mean intensity measured.

wild-type FDB fibers [6] = test: Cytoskeletal stiffness by axial compression, atomic force microscopy; conditions: 10 μM, 2 hrs
young WT muscle cells = test: Stretch Ca2+ entry in young fibers after increasing microtubule density; type: cell-based, mouse; conditions: young WT treated with taxol
Method: Similar to DCF measurements, FDBs were suspended in Ringer's solution containing 5 μM fluo-4-AM (Invitrogen, Carlsbad, Ca) for 30 minutes at room temperature. Fluo-4-loaded cells were mounted on MUST and imaged using confocal line-scanning microscopy at 2 ms/line. Fluo-4 signal slopes before stretch and after were measured.

[7] = tested on: young wild-type and young mdx FDB muscle fibers; test: Stretch-induced X-ROS in young fibers after increasing microtubule density; type: cell-based, mouse; conditions: young wild-type or young mdx fibers, taxol 10 μM
Method: All experiments were performed in custom rotating glass-bottom chamber (Four-hour Day Foundation, Towson, Md.) equipped with bath perfusion and mounted on BioRad Radiance fluorescent laser scanning confocal attached to an Olympus IX-70 inverted microscope (Olympus Corp., Centre Valley, Pa.). Cells were attached using micro-tweezers coated with the biological adhesive, MyoTak (Ionoptix, Milton, Mass.) and connected to a high-sensitivity force transducer (KG7) equipped with an anti-oscillation filter and a piezo-electric length controller (World Precision Instruments, Sarasota, Fla.). […]
as §2
ROS was measured using 6-carboxy-2″,7″-dichlorodihydrofluorescein diacetate (DCFH-DA) (Invitrogen, Carlsbad, Calif.) in dimethyl sulfoxide (DMSO). […] DCF fluorescence signals were processed as described (16). […]

C2C12 myotubes = test: Microtubule subunit content in myotubes; type: cell-based
Piezo2 = Piezo2 (Homo sapiens, UniProt Q9H5I5); conditions: cited from earlier work
Piezo1 = conditions: cited from earlier work
Sequence of Piezo1 (Q92508 whole entry, species assumed): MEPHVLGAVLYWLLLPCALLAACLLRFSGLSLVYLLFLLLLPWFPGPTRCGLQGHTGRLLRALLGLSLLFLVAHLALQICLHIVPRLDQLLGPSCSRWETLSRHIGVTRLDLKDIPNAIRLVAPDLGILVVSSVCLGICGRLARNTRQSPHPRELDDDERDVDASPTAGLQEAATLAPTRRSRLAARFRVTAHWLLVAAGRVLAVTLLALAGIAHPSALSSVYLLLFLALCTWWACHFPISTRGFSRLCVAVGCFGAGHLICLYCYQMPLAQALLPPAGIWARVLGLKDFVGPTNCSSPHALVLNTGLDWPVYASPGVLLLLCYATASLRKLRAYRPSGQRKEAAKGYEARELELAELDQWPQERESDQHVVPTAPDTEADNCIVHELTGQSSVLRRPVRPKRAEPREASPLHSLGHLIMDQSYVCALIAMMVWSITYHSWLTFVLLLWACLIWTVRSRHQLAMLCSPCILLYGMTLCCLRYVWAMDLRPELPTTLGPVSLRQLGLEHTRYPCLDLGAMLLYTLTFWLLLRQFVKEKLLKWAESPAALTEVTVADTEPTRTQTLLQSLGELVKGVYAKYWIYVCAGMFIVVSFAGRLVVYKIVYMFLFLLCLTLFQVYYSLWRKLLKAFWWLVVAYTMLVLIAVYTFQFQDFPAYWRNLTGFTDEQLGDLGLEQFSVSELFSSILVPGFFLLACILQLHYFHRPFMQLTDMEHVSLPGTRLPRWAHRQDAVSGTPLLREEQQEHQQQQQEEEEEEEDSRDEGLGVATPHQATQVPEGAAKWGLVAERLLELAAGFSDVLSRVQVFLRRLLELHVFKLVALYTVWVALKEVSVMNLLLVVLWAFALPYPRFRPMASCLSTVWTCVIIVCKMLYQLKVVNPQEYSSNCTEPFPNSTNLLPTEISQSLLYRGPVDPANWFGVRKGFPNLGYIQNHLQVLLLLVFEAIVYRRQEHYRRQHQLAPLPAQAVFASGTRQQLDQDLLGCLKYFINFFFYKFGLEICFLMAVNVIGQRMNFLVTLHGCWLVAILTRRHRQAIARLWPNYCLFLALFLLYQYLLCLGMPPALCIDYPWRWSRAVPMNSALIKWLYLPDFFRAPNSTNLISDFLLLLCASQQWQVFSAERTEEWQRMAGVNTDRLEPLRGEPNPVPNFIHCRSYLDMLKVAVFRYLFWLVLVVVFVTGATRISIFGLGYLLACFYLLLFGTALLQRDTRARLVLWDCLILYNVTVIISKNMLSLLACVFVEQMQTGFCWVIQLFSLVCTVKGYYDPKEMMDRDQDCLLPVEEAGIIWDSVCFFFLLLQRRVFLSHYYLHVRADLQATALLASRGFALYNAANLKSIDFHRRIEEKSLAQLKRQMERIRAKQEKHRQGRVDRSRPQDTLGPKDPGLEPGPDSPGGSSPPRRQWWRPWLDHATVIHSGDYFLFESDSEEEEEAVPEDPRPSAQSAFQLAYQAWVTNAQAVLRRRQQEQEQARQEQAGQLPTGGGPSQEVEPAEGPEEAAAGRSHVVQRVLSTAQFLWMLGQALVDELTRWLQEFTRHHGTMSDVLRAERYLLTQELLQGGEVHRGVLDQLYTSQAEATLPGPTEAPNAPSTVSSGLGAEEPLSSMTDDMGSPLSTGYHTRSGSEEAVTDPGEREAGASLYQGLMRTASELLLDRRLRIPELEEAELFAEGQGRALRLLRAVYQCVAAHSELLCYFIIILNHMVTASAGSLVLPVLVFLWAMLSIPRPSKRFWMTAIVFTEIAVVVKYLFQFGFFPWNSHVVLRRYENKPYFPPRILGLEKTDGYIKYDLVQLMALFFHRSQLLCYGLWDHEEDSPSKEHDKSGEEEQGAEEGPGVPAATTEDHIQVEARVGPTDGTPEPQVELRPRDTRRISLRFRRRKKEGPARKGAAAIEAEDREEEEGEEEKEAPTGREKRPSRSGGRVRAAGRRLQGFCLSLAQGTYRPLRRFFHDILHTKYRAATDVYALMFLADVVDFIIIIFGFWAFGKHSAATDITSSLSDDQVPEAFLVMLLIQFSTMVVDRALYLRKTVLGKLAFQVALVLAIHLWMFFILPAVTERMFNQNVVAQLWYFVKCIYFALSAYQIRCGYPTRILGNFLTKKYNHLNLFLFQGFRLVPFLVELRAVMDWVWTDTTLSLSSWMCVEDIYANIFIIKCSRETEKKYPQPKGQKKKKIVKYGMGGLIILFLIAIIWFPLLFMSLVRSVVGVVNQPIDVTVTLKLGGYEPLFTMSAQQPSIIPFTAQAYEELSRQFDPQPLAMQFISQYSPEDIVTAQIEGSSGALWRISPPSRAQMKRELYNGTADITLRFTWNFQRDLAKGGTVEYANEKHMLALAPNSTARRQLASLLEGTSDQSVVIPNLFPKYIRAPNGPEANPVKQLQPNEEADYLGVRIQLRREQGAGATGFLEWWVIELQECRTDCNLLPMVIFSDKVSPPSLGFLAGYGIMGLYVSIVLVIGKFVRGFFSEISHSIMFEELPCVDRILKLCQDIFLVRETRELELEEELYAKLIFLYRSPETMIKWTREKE

wild-type FDB fibers [8] = test: Stretch activated calcium influx, Mn quench assay; conditions: parthenolide 10 uM 2 hrs, Gp91ds-TAT 1 uM 30 minutes

With `CCN(CC)CCCC(C)Nc1nc(C)cc(Nc2ccc3nc(C)cc(N)c3c2)n1` (racemic) [Rac1 inhibitor] the “stretch-induced ROS production (X-ROS)” value (adult mdx FDB myofibers [1]) was “effective at abrogating X-ROS; also recorded: ameliorated the stretch-induced ROS production”.
For `COC(=O)[C@@H](N)CCCNC(=N)N[N+](=O)[O-]` [L-NAME], the “stretch-induced ROS production (X-ROS)” value (adult mdx FDB myofibers [1]) was “had no effect”.
In the case of `COc1cc(C(C)=O)ccc1O` [apocynin], the “eccentric contraction induced force loss” value (adult mdx mice [2]) is listed as “significantly ameliorated the contraction induced force drop; also recorded: significant protection from force loss; also recorded: significantly reduced contraction induced force loss”, the “isometric contraction induced force loss” value (adult mdx mice [3]) is listed as “significant protection from force loss; also recorded: significantly decreased the isometric contraction induced force loss” and the “translocation of cytosolic p47phox and p67phox proteins / inactivation of NOX” value (NOX) is listed as “inhibit translocation”. For the same molecule, the “eccentric contraction induced force drop in wild-type mice” value (wild-type (WT) mice; WT mice, gastrocnemius, 18 eccentric contractions) was “significantly decreased the eccentric contraction induced force loss”.
For `COc1cc2c(c(OC)c1OC)-c1ccc(OC)c(=O)cc1[C@@H](NC(C)=O)CC2` [colchicine], the “stretch-induced ROS production (X-ROS)” value (adult mdx FDB myofibers [1]) was “prevented the increase in X-ROS; also recorded: little X-ROS; also recorded: ameliorated the stretch-induced ROS production”, the “stretch dependent sarcolemmal Ca2+ influx” value (adult mdx FDB myofibers [4]) was “inhibited; also recorded: prevented; also recorded: little X-ROS and Ca^2+ entry; also recorded: ablated” and the “eccentric contraction induced force loss” value (adult mdx mice [2]) was “significantly ameliorated the contraction induced force drop; also recorded: significant protection from force loss; also recorded: significantly reduced contraction induced force loss”. The “isometric contraction induced force loss” value (adult mdx mice [3]) was “significant protection from force loss; also recorded: significantly decreased the isometric contraction induced force loss”, the “microtubule density (α-tubulin IHC)” value [5] was “decreased; also recorded: ablated the majority of the cytoskeletal structure” and the cytoskeletal stiffness (wild-type FDB fibers [6]) was “equally effective at decreasing cytoskeletal stiffness”. For the same molecule, the “eccentric contraction induced force drop in wild-type mice” value (wild-type (WT) mice; mouse, in vivo) was “significantly decreased the eccentric contraction induced force loss”.
With `C/C1=C\CC[C@@]2(C)O[C@@H]2[C@H]2OC(=O)[C@H](CN(C)C)[C@@H]2CC1` [dimethylaminoparthenolide] the “eccentric contraction induced force drop (FIG. 13)” value (adult mdx mice [2]) was “ameliorated the force drop”, the “eccentric contraction induced force drop (FIG. 13)” value (adult mdx mice [2]; listed as LC-1) was “reduced eccentric contraction induced force drop” and the “isometric contraction induced force loss” value (adult mdx mice [3]) was “significantly decreased the isometric contraction induced force loss”.
With `C/C1=C/C(=O)O[C@@H]2C[C@@H](CC[C@H](C)/C=C\C=C\CC1)O[C@@](O)([C@@H]1CSC(=O)N1)C2` [latrunculin A] the “stretch-induced ROS production (X-ROS)” value (adult mdx FDB myofibers [1]) was “had no effect” and the “stretch-induced ROS production (X-ROS)” value (adult mdx FDB myofibers [1]; listed as latrunuculin A) was “no significant effect”.
With `CC(=O)O[C@H]1C(=O)[C@@]2(C)[C@H]([C@H](OC(=O)c3ccccc3)[C@]3(O)C[C@H](OC(=O)[C@H](O)[C@@H](NC(=O)c4ccccc4)c4ccccc4)C(C)=C1C3(C)C)[C@]1(OC(C)=O)CO[C@@H]1C[C@@H]2O` [taxol] the “Ca2+ entry in young fibers” value (young WT muscle cells) was “exuberant X-ROS and Ca^2+ entry”, the “X-ROS in young fibers” value [7] was “exuberant X-ROS; also recorded: made X-ROS competent” and the “microtubule density (α-tubulin IHC)” value [5] was “increased”.
In the case of “Angiotensin II: angiotensin II, increases microtubule density”, the microtubule subunit content (C2C12 myotubes) is reported as “increased microtubule subunit content”, the “microtubule density in isolated FDB myofibers” value [5] is reported as “increases microtubule density” and the “microtubule density in isolated FDB myofibers” value ([5]; listed as angiotensin II) is reported as “densified the microtubule network”.
In the case of “GsMTx4: mechano-sensitive (stretch activated) channel blocker (GCLEFWWKCNPNDDKCCRPKLKCSKLFKLCNFSF; ends and bridges not checked; cysteine pairing not given here; UniProt Q7YT39 47-80, looked up)”, the “inhibition of Piezo2 channel” value (Piezo2) is given as “inhibited”, the “stretch dependent sarcolemmal Ca2+ influx” value (adult mdx FDB myofibers [4]) is given as “inhibited; also recorded: prevented; also recorded: ablated” and the “inhibition of Piezo1 channel” value (Piezo1) is given as “inhibited”. The “stretch activated calcium influx” value (wild-type FDB fibers [8]) was “significantly reduced stretch activated Ca^2+ influx”.
In the case of fulvene-5, the “stretch-induced ROS production (X-ROS)” value (adult mdx FDB myofibers [1]) is reported as “verified NOX2 as the source of the stretch dependent ROS” and the “stretch-induced ROS production (X-ROS)” value (adult mdx FDB myofibers [1]; listed as Fulvene 5) is reported as “effective at abrogating X-ROS”.
